# Source: the kinase profiling compilation of Christmann-Franck et al. (2016)
# How the values were obtained:
# PRKCH (human) = PRKCH (human) (UniProt P24723); assay: Caliper, Mobility shift assay off-chip
# ERBB4 (human) = ERBB4 (human) (UniProt Q15303); assay: Caliper, Mobility shift assay off-chip
# CDC42BPA (human) = CDC42BPA (human) (UniProt Q5VT25); assay: Caliper, Mobility shift assay off-chip
# RPS6KB2 (human) = RPS6KB2 (human) (UniProt Q9UBS0); assay: Caliper, Mobility shift assay off-chip
# PRKD2 (human) = PRKD2 (human) (UniProt Q9BZL6); assay: Caliper, Mobility shift assay off-chip
# Sequence of PRKD2 (human) (Q9BZL6 whole entry, looked up): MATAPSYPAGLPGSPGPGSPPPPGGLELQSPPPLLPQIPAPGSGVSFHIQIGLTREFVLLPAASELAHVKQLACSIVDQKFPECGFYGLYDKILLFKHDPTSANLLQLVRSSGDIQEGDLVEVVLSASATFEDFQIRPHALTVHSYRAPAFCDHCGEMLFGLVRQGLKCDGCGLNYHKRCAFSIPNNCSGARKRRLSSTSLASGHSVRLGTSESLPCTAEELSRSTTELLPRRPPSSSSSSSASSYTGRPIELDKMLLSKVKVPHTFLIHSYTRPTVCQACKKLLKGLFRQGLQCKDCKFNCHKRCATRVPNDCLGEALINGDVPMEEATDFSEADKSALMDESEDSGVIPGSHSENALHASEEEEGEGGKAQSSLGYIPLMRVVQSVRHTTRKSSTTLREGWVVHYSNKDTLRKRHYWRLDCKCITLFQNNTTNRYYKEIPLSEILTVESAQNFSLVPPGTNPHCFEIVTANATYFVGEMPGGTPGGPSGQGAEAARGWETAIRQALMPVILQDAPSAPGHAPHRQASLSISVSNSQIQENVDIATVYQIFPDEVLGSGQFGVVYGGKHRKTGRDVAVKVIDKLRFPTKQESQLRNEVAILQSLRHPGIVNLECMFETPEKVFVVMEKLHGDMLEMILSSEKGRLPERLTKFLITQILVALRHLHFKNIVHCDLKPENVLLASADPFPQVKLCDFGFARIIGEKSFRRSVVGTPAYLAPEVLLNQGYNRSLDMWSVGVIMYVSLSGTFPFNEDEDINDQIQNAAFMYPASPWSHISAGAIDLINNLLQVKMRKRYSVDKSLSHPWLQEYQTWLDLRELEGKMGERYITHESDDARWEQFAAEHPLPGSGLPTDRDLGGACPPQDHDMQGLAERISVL
# TNIK (human) = TNIK (human) (UniProt Q9UKE5); assay: Caliper, Mobility shift assay off-chip
# PDPK1 (human) = PDPK1 (human) (UniProt O15530); assay: Caliper, Mobility shift assay off-chip
# CSNK2A1 (human) = CSNK2A1 (human) (UniProt P68400); assay: Caliper, Mobility shift assay off-chip
# SRPK2 (human) = SRPK2 (human) (UniProt P78362); assay: Caliper, Mobility shift assay off-chip
# Sequence of SRPK2 (human) (P78362 whole entry, looked up): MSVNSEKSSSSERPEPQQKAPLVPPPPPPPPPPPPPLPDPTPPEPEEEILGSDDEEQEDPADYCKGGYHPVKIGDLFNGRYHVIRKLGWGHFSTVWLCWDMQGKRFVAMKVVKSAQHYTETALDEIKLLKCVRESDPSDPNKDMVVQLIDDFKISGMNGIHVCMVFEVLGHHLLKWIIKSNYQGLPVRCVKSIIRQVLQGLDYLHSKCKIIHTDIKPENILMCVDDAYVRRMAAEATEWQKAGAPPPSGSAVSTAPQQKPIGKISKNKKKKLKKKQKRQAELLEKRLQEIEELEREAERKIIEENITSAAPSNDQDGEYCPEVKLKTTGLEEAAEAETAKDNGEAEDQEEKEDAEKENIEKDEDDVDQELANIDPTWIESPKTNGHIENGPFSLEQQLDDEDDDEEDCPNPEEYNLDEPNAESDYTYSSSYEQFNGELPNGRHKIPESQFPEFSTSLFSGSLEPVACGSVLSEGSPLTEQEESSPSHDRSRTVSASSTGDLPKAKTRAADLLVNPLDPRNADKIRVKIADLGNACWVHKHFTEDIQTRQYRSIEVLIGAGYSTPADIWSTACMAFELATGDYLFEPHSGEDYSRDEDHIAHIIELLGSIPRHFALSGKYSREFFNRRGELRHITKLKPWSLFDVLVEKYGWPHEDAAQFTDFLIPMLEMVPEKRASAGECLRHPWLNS
# AXL (human) = AXL (human) (UniProt P30530); assay: Caliper, Mobility shift assay off-chip
# PRKCD (human) = PRKCD (human) (UniProt Q05655); assay: Caliper, Mobility shift assay off-chip
# PRKCG (human) = PRKCG (human) (UniProt P05129); assay: Caliper, Mobility shift assay off-chip
# PRKAA2 (human) = PRKAA2 (human) (UniProt P54646); assay: Caliper, Mobility shift assay off-chip
# LTK (human) = LTK (human) (UniProt P29376); assay: Caliper, Mobility shift assay off-chip; settings: compound 0.2 µM
# DYRK3 (human) = DYRK3 (human) (UniProt O43781); assay: Caliper, Mobility shift assay off-chip
# MST1R (human) = MST1R (human) (UniProt Q04912); assay: Caliper, Mobility shift assay off-chip
# ALK EML4 (human) = ALK EML4 (human) (UniProt Q9HC35+Q9UM73); assay: Caliper, Mobility shift assay off-chip
# GSK3A (human) = GSK3A (human) (UniProt P49840); assay: Caliper, Mobility shift assay off-chip
# AKT3 (human) = AKT3 (human) (UniProt Q9Y243); assay: Caliper, Mobility shift assay off-chip
# MAPK14 (human) = MAPK14 (human) (UniProt Q16539); assay: Caliper, Mobility shift assay off-chip
# Sequence of MAPK14 (human) (Q16539 whole entry, looked up): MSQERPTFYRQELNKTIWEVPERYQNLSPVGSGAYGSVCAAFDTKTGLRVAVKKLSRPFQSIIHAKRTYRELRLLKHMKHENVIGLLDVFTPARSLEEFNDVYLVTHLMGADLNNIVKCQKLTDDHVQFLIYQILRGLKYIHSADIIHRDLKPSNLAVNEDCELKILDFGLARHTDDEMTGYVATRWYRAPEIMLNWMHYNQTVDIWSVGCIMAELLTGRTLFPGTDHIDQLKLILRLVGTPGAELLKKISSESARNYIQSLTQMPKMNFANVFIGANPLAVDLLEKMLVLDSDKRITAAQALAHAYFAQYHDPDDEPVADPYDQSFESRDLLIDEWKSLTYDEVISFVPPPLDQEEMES
# PASK (human) = PASK (human) (UniProt Q96RG2); assay: Caliper, Mobility shift assay off-chip
# CDK6 (human) = CDK6 (human) (UniProt Q00534); assay: Caliper, Mobility shift assay off-chip
# TSSK3 (human) = TSSK3 (human) (UniProt Q96PN8); assay: Caliper, Mobility shift assay off-chip
# Sequence of TSSK3 (human) (Q96PN8 whole entry, looked up): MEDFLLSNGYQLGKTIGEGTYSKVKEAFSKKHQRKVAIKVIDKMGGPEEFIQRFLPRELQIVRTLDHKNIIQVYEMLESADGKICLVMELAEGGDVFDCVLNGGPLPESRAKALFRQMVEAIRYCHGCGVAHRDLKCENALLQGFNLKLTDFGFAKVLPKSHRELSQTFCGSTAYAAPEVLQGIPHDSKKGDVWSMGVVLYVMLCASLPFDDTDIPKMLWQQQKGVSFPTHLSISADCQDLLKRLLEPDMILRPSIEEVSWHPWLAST
# MAPK8 (human) = MAPK8 (human) (UniProt P45983); assay: Caliper, Mobility shift assay off-chip
# MAP4K4 (human) = MAP4K4 (human) (UniProt O95819); assay: Caliper, Mobility shift assay off-chip; settings: compound 4.0 µM
# MARK1 (human) = MARK1 (human) (UniProt Q9P0L2); assay: Caliper, Mobility shift assay off-chip
# ZAP70 (human) = ZAP70 (human) (UniProt P43403); assay: Caliper, Mobility shift assay off-chip
# DDR2 (human) = DDR2 (human) (UniProt Q16832); assay: Caliper, Mobility shift assay off-chip
# Sequence of DDR2 (human) (Q16832 whole entry, looked up): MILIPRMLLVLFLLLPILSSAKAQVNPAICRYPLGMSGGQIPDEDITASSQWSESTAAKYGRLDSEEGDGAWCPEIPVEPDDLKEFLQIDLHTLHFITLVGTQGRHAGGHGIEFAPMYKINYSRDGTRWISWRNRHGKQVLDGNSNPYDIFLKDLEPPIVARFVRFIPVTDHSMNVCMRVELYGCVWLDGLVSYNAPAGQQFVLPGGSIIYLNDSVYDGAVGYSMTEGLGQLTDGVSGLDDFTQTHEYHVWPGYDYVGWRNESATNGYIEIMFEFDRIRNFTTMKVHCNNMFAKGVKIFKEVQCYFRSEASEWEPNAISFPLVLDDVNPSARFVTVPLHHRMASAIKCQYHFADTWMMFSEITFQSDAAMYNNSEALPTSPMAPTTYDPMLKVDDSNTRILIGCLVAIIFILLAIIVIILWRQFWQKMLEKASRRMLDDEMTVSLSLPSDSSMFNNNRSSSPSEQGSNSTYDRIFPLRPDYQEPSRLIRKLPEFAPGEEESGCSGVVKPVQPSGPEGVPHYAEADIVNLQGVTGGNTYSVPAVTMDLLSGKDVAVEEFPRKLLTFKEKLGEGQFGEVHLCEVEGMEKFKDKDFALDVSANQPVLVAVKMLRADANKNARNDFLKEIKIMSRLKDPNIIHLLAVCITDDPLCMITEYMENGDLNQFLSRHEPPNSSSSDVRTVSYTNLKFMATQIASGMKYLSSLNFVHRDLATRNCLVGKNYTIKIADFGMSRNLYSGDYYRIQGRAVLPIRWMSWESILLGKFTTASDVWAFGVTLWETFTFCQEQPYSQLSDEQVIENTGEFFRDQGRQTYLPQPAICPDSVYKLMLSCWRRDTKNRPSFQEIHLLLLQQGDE
# PLK2 (human) = PLK2 (human) (UniProt Q9NYY3); assay: IMAP-FP
# Sequence of PLK2 (human) (Q9NYY3 whole entry, looked up): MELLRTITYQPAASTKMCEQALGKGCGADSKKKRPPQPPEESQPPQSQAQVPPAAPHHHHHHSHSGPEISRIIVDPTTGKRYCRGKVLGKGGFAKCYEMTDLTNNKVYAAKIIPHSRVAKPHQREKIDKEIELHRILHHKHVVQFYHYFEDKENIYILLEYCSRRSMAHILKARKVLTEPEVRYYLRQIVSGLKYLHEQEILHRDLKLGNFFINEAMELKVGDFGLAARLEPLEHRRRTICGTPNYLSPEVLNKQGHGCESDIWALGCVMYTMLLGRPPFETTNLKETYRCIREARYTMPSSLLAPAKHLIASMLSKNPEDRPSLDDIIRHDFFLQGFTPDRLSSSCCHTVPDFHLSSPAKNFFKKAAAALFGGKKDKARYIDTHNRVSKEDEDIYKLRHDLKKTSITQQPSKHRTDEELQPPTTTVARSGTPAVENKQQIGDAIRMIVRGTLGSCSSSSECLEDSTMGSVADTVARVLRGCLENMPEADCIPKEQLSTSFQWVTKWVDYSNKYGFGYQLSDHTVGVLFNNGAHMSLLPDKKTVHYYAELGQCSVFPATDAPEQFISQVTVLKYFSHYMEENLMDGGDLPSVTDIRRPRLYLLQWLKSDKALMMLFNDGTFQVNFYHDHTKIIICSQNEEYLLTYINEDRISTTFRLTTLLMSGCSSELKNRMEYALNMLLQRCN
# PKN1 (human) = PKN1 (human) (UniProt Q16512); assay: IMAP-FP
# SRPK1 (human) = SRPK1 (human) (UniProt Q96SB4); assay: IMAP-FP
# Sequence of SRPK1 (human) (Q96SB4 whole entry, looked up): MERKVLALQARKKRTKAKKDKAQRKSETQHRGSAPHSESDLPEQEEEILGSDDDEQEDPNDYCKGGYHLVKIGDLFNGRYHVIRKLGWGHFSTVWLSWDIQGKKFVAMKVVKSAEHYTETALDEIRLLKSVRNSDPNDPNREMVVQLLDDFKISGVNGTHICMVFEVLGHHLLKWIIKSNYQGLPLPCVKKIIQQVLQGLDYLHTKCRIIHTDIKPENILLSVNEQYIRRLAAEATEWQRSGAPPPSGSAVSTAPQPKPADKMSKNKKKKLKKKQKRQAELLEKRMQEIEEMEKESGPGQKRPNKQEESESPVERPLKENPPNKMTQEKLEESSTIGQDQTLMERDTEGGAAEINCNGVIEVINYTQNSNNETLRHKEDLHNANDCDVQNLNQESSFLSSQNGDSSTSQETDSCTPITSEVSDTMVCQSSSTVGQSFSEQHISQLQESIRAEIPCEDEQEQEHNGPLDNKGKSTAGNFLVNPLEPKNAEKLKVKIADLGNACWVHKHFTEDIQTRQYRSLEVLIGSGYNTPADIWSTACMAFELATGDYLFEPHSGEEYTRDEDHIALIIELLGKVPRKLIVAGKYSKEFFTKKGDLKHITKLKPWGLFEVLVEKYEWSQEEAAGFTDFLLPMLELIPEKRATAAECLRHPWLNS
# EIF2AK2 (human) = EIF2AK2 (human) (UniProt P19525); assay: IMAP-FP
# Sequence of EIF2AK2 (human) (P19525 whole entry, looked up): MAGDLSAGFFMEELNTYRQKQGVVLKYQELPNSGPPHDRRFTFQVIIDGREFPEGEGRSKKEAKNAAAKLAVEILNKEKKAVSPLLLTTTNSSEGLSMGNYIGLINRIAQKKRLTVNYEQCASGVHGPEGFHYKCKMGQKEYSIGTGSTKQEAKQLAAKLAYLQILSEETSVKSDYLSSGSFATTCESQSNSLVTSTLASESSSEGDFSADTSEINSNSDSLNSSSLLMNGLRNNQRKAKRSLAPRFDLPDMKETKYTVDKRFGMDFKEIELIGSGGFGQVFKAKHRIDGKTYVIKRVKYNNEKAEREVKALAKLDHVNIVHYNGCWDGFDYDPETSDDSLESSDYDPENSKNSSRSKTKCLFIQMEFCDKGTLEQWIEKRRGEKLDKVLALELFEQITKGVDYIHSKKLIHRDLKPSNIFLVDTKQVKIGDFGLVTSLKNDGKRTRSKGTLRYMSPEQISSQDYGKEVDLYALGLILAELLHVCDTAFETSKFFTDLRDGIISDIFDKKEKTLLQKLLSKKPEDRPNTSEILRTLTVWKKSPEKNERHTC
# EIF2AK3 (human) = EIF2AK3 (human) (UniProt Q9NZJ5); assay: IMAP-FP
structure (smiles),measurement,setting,value
CCN(CC)CCNC(=O)c1c(C)[nH]c(/C=C2\C(=O)Nc3ccc(F)cc32)c1C,inhibition,PRKCH (human); compound 0.2 µM,2.3%
same,inhibition,PRKCH (human); compound 4.0 µM,20.7%
same,inhibition,ERBB4 (human); compound 0.2 µM,-0.9%
same,inhibition,ERBB4 (human); compound 4.0 µM,33.9%
same,inhibition,CDC42BPA (human); compound 0.2 µM,5.5%
same,inhibition,CDC42BPA (human); compound 4.0 µM,-26.5%
same,inhibition,RPS6KB2 (human); compound 0.2 µM,15.7%
same,inhibition,RPS6KB2 (human); compound 4.0 µM,50%
same,Ki,PRKD2 (human),0.052 µM
same,inhibition,PRKD2 (human); compound 0.2 µM,65.6%
same,inhibition,PRKD2 (human); compound 4.0 µM,97.9%
same,inhibition,TNIK (human); compound 0.2 µM,87.5%
same,inhibition,TNIK (human); compound 4.0 µM,98.1%
same,inhibition,PDPK1 (human); compound 0.2 µM,-0.3%
same,inhibition,PDPK1 (human); compound 4.0 µM,36.5%
same,inhibition,CSNK2A1 (human); compound 0.2 µM,-0.4%
same,inhibition,CSNK2A1 (human); compound 4.0 µM,19.9%
same,inhibition,SRPK2 (human); compound 0.2 µM,-0.5%
same,inhibition,SRPK2 (human); compound 4.0 µM,21.1%
same,inhibition,AXL (human); compound 0.2 µM,96.8%
same,inhibition,AXL (human); compound 4.0 µM,102%
same,inhibition,PRKCD (human); compound 0.2 µM,0.9%
same,inhibition,PRKCD (human); compound 4.0 µM,48.4%
same,inhibition,PRKCG (human); compound 0.2 µM,0.1%
same,inhibition,PRKCG (human); compound 4.0 µM,38.9%
same,inhibition,PRKAA2 (human); compound 0.2 µM,82.6%
same,inhibition,PRKAA2 (human); compound 4.0 µM,100%
same,inhibition,LTK (human),69%
same,inhibition,DYRK3 (human); compound 0.2 µM,24.4%
same,inhibition,DYRK3 (human); compound 4.0 µM,81.9%
same,inhibition,MST1R (human); compound 0.2 µM,6.4%
same,inhibition,MST1R (human); compound 4.0 µM,48.8%
same,inhibition,ALK EML4 (human); compound 0.2 µM,70.5%
same,inhibition,ALK EML4 (human); compound 4.0 µM,100%
same,inhibition,GSK3A (human); compound 0.2 µM,3.3%
same,inhibition,GSK3A (human); compound 4.0 µM,21.8%
same,inhibition,AKT3 (human); compound 0.2 µM,2.3%
same,inhibition,AKT3 (human); compound 4.0 µM,44.8%
same,inhibition,MAPK14 (human); compound 0.2 µM,-6.9%
same,inhibition,MAPK14 (human); compound 4.0 µM,-20.4%
same,inhibition,PASK (human); compound 0.2 µM,-4%
same,inhibition,PASK (human); compound 4.0 µM,17.8%
same,inhibition,CDK6 (human); compound 0.2 µM,23.8%
same,inhibition,CDK6 (human); compound 4.0 µM,89.2%
same,inhibition,TSSK3 (human); compound 0.2 µM,2.6%
same,inhibition,TSSK3 (human); compound 4.0 µM,-1.3%
same,inhibition,MAPK8 (human); compound 0.2 µM,-3.9%
same,inhibition,MAPK8 (human); compound 4.0 µM,-16%
same,inhibition,MAP4K4 (human),101%
same,inhibition,MARK1 (human); compound 0.2 µM,68.8%
same,inhibition,MARK1 (human); compound 4.0 µM,96.8%
same,inhibition,ZAP70 (human); compound 0.2 µM,6.8%
same,inhibition,ZAP70 (human); compound 4.0 µM,37.7%
same,inhibition,DDR2 (human); compound 0.2 µM,55.8%
same,inhibition,DDR2 (human); compound 4.0 µM,98%
same,inhibition,PLK2 (human); compound 0.2 µM,-4.7%
same,inhibition,PLK2 (human); compound 4.0 µM,4.2%
same,inhibition,PKN1 (human); compound 0.2 µM,-2.2%
same,inhibition,PKN1 (human); compound 4.0 µM,57.1%
same,inhibition,SRPK1 (human); compound 0.2 µM,-0.7%
same,inhibition,SRPK1 (human); compound 4.0 µM,39.6%
same,inhibition,EIF2AK2 (human); compound 0.2 µM,29.1%
same,inhibition,EIF2AK2 (human); compound 4.0 µM,88.4%
same,inhibition,EIF2AK3 (human); compound 0.2 µM,-15%
same,inhibition,EIF2AK3 (human); compound 4.0 µM,-5.4%
